TGI and GI50 data for 22 molecules are collected here from PubChem BioAssay (NCI).

Some test systems named below: IGROV1 ovarian; HOP-62 NSCLC; A498 renal; SW-620 colon; SF-539 CNS; LOX IMVI melanoma; OVCAR-4 ovarian; K-562 leukemia; T-47D breast.
Holding throughout (experiment): NCI tumour cell line growth inhibition, 48 h

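Grown in 96-well plates, cells were treated for 48 hours with each compound at five concentrations. Insufficient inhibition: endpoint recorded as highest concentration tested. GI50 marks 50% less growth. TGI is the concentration that stops growth completely.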

As to `COC(=O)/C=C/C1C(C(=O)OC)C2(C(=O)OC)CCC1(C(=O)OC)N2` (configuration not stated), the TGI in the experiment with IGROV1 ovarian, in the experiment with HOP-62 NSCLC, with A498 renal, in the experiment on SW-620 colon, with SF-539 CNS and with LOX IMVI melanoma was more than 100 µM in each case. Also, the TGI in the experiment with OVCAR-4 ovarian and in the experiment on K-562 leukemia was more than 100 µM throughout.

Consider `O=C(Nc1ccc([N+](=O)[O-])cc1)C1C(=O)C(=O)N(c2ccc([N+](=O)[O-])cc2)C1=O` (configuration not stated), for which the TGI is more than 100 µM in the experiment on IGROV1 ovarian; more than 100 µM with HOP-62 NSCLC; more than 100 µM in the experiment on A498 renal; 33.9 µM in the experiment with SW-620 colon; more than 100 µM in the experiment on SF-539 CNS; 30.3 µM with LOX IMVI melanoma. In the experiment on K-562 leukemia, the TGI was more than 100 µM.

Regarding `O=C1CSC(Cc2nc3ccccc3[nH]2)=N1`, the TGI in the experiment on IGROV1 ovarian is more than 58.7 µM; with HOP-62 NSCLC, 44.1 µM; in the experiment on A498 renal, 10.4 µM; with SW-620 colon it was more than 100 µM; in the experiment with SF-539 CNS, 43.1 µM; in the experiment on LOX IMVI melanoma, 37.3 µM. Moreover, the TGI in the experiment with OVCAR-4 ovarian is 41.6 µM; with K-562 leukemia, more than 100 µM.

On to `O=C(/C=C/c1ccccc1)/C=C/c1ccccc1`, for which the TGI is 66.5 µM in the experiment with IGROV1 ovarian; more than 100 µM in the experiment with HOP-62 NSCLC; more than 100 µM in the experiment on A498 renal; 40.8 µM in the experiment with SW-620 colon; 45 µM in the experiment with SF-539 CNS; 31.7 µM in the experiment with LOX IMVI melanoma. Further, the results for the TGI in the experiment with OVCAR-4 ovarian and in the experiment with K-562 leukemia were 53.2 µM and more than 100 µM, respectively.

For the molecule `CCCCCCCCCc1cc(=O)c2c(O)cccc2o1`, the TGI in the experiment with IGROV1 ovarian was more than 100 µM; with HOP-62 NSCLC, more than 100 µM; in the experiment on SW-620 colon it was more than 100 µM; with SF-539 CNS it was more than 100 µM; in the experiment on LOX IMVI melanoma, 72.3 µM; in the experiment on OVCAR-4 ovarian, more than 100 µM. The TGI in the experiment on K-562 leukemia was more than 100 µM.

With `CN=NN(C)C(=O)NC`, the TGI with IGROV1 ovarian, in the experiment on HOP-62 NSCLC, in the experiment with A498 renal, in the experiment on SW-620 colon, with SF-539 CNS and in the experiment with LOX IMVI melanoma was more than 100 µM in each case. For the same molecule, the TGI with OVCAR-4 ovarian and with K-562 leukemia was more than 100 µM in each case.

For the molecule `CCOC(=O)c1[nH]c(COC(C)=O)c(CCCOC(C)=O)c1CCCOC(C)=O`, the TGI with IGROV1 ovarian, with HOP-62 NSCLC, in the experiment on A498 renal, with SW-620 colon, with SF-539 CNS and in the experiment on LOX IMVI melanoma was more than 100 µM throughout. The TGI in the experiment with OVCAR-4 ovarian and in the experiment with K-562 leukemia was more than 100 µM each time.

In the case of `Cc1cc(C)n(CCNCCn2nc(C)cc2C)n1`, the TGI with HOP-62 NSCLC, with A498 renal, in the experiment on SW-620 colon, with SF-539 CNS, in the experiment on LOX IMVI melanoma and in the experiment with OVCAR-4 ovarian was more than 100 µM each time. The same molecule showed a TGI with K-562 leukemia of more than 100 µM.

On to `O=C(CCC/C(CC(=O)c1ccc(Br)cc1)=N\O)Nc1ccccc1`, for which the TGI in the experiment with IGROV1 ovarian, with HOP-62 NSCLC, with SW-620 colon, with LOX IMVI melanoma and in the experiment with OVCAR-4 ovarian was more than 100 µM each time.

Take `CC(C)(C)N1CC2(CCCCC2)C1=O`: the TGI in the experiment with IGROV1 ovarian, in the experiment with HOP-62 NSCLC, in the experiment on A498 renal, in the experiment on SW-620 colon, in the experiment on SF-539 CNS and in the experiment with LOX IMVI melanoma was more than 100 µM each time. The TGI with OVCAR-4 ovarian and in the experiment with K-562 leukemia was more than 100 µM in each case.

For the molecule `CC(=O)OCC1OC([S-])C(OC(C)=O)C(OC(C)=O)C1OC(C)=O.CC[PH+](CC)CC.CC[PH+](CC)CC.[Au].[Au]` (configuration not stated), the GI50 is 0.306 µM in the experiment with IGROV1 ovarian; 1.23 µM with HOP-62 NSCLC; 0.199 µM in the experiment on SW-620 colon; 0.18 µM with SF-539 CNS; 0.142 µM in the experiment with LOX IMVI melanoma; 0.506 µM with OVCAR-4 ovarian. Besides, the GI50 with K-562 leukemia is 0.0834 µM. Also, the TGI in the experiment with IGROV1 ovarian turned out to be 1.09 µM; in the experiment with HOP-62 NSCLC, 2.56 µM; in the experiment with SW-620 colon, 0.493 µM; in the experiment with SF-539 CNS, 0.624 µM; in the experiment with LOX IMVI melanoma, 0.317 µM; in the experiment on OVCAR-4 ovarian, 1.88 µM. In addition, the TGI in the experiment with K-562 leukemia came out at 0.337 µM.

Take `CCOC(=O)CCc1c(C)c2c(OC(C)=O)cc(OC(C)=O)cc2oc1=O`: the TGI in the experiment with HOP-62 NSCLC, with SW-620 colon, with SF-539 CNS and with OVCAR-4 ovarian was more than 100 µM each time.

For `O/N=C\c1c(O)ccc2ccccc12`, the TGI in the experiment on HOP-62 NSCLC, in the experiment with A498 renal, with T-47D breast, in the experiment with SW-620 colon, in the experiment with SF-539 CNS and in the experiment with LOX IMVI melanoma was more than 100 µM each time. In the experiment on K-562 leukemia, this molecule returned a TGI of more than 100 µM.

Turning to `N#CC(/C(=N/NC(=O)C(=O)NN)C(=O)NC12CC3CC(CC(C3)C1)C2)c1ccccc1` (configuration not stated), the TGI in the experiment with IGROV1 ovarian, with HOP-62 NSCLC, in the experiment on A498 renal, in the experiment with SW-620 colon, with SF-539 CNS and in the experiment with LOX IMVI melanoma was more than 100 µM throughout. Also, the TGI in the experiment with OVCAR-4 ovarian and in the experiment with K-562 leukemia was more than 100 µM in each case.

Turning to `O=C(CCC(=O)Nc1cccc(Cl)c1)CC(=O)c1ccc(Cl)cc1`, the TGI in the experiment with IGROV1 ovarian, in the experiment with HOP-62 NSCLC, in the experiment on SW-620 colon, in the experiment on SF-539 CNS, in the experiment on LOX IMVI melanoma and in the experiment with OVCAR-4 ovarian was more than 100 µM throughout. This molecule had a TGI in the experiment on K-562 leukemia of more than 100 µM.

For the molecule `O=C(CN1CCCCC1)N1CCc2c([nH]c3ccccc23)C1c1cccnc1` (configuration not stated), the TGI in the experiment with IGROV1 ovarian, in the experiment on HOP-62 NSCLC, in the experiment with A498 renal, in the experiment with SW-620 colon, in the experiment on SF-539 CNS and in the experiment with LOX IMVI melanoma was more than 100 µM throughout. Also, the TGI in the experiment with OVCAR-4 ovarian and with K-562 leukemia was more than 100 µM in each case.

For `CC(=O)Oc1ccccc1C(=O)N=C1[Se]CCN1C(=O)c1ccccc1OC(C)=O`, the GI50 in the experiment on HOP-62 NSCLC was 0.546 µM; with A498 renal it was 1.02 µM; with T-47D breast, 1.84 µM; in the experiment with SW-620 colon it was 1.52 µM; in the experiment with SF-539 CNS, 1.06 µM; in the experiment on OVCAR-4 ovarian, 1.46 µM. In the experiment on K-562 leukemia, the GI50 is 0.94 µM. Also, the TGI was 1.88 µM in the experiment on HOP-62 NSCLC; 2.4 µM in the experiment with A498 renal; 5.06 µM in the experiment on T-47D breast; 6.09 µM with SW-620 colon; 3.21 µM in the experiment on SF-539 CNS; 7.24 µM with OVCAR-4 ovarian. Moreover, the TGI in the experiment on K-562 leukemia was more than 100 µM.

Regarding `O=C(/C=C/c1c(O)ccc2ccccc12)c1ccc2ccccc2c1`, the TGI in the experiment with IGROV1 ovarian, in the experiment with HOP-62 NSCLC, in the experiment on A498 renal, with SW-620 colon, in the experiment on SF-539 CNS and in the experiment with LOX IMVI melanoma was more than 100 µM in each case. Further, the TGI with OVCAR-4 ovarian and with K-562 leukemia was more than 100 µM each time.

Consider `NC1CCCC[C@H]1N.N[C@@H]1CCCC[C@@H]1N.O=C(P(=O)([O-])[O-])P(=O)([O-])[O-].[Pt+4].[Pt+4]`, for which the GI50 with IGROV1 ovarian is more than 100 µM; with HOP-62 NSCLC, more than 100 µM; in the experiment with A498 renal, more than 100 µM; in the experiment with SW-620 colon, 38.8 µM; in the experiment with SF-539 CNS, more than 100 µM; in the experiment on LOX IMVI melanoma, more than 100 µM. Also, the GI50 in the experiment with OVCAR-4 ovarian is more than 100 µM; in the experiment on K-562 leukemia, 78.2 µM. Besides, the TGI in the experiment with IGROV1 ovarian, with HOP-62 NSCLC, in the experiment on A498 renal, in the experiment with SW-620 colon, with SF-539 CNS and with LOX IMVI melanoma was more than 100 µM throughout. For the same molecule, the TGI in the experiment with OVCAR-4 ovarian and in the experiment with K-562 leukemia was more than 100 µM throughout.

Take `CCOC(=O)[C@H](CCCNC(=O)OC(C)(C)C)NCc1ccc(OC)c(OC)c1`: the TGI with IGROV1 ovarian, in the experiment on HOP-62 NSCLC, in the experiment with A498 renal, in the experiment on SW-620 colon, with SF-539 CNS and with LOX IMVI melanoma was more than 100 µM throughout. Besides, the TGI with OVCAR-4 ovarian and in the experiment on K-562 leukemia was more than 100 µM each time.

`O=S(O)CCCCSSCc1ccccc1CSSCCCCS(=O)O`: the TGI is more than 100 µM in the experiment with IGROV1 ovarian; more than 100 µM in the experiment on HOP-62 NSCLC; more than 100 µM in the experiment on A498 renal; 89.5 µM in the experiment with SW-620 colon; 64.2 µM in the experiment on SF-539 CNS; 28.7 µM in the experiment on LOX IMVI melanoma. Further, the TGI came to 18.3 µM with OVCAR-4 ovarian and 82.3 µM in the experiment on K-562 leukemia.

With `O=C(CSc1nnc(-c2ccccc2NC(=O)C(F)(F)F)c(=O)[nH]1)NC(=O)Nc1ccccc1`, the TGI with IGROV1 ovarian, with HOP-62 NSCLC, in the experiment on SW-620 colon, with SF-539 CNS, in the experiment on LOX IMVI melanoma and with K-562 leukemia was more than 100 µM throughout.
